Patent publication US8193333B2, “Cancer therapy using Bcl-Xl-specific siNA” (Centre Regional de Lutte Contre le Cancer-Centre Francois …, priority 2006, dated 2012)

System: Bcl-XL protein
Experiment: Western blot of Bcl-XL protein expression in tumour cell lines after siRNA transfection
Assay type: cell-based, human
Protocol: SKOV3, OAW42, OAW42-R10, IGROV1 and IGROV1-R10 human ovarian adenocarcinoma cell lines, GL15 glioblastoma cell line, and NCI-H28 mesothelioma cell line were obtained from ECACC or ATCC. OAW42, OAW42-R10 cells were grown in DMEM (GIBCO-BRL) supplemented with 10% foetal calf serum (GIBCO-BRL), 2 mM Glutamax™ (GIBCO-BRL), 1 mM sodium pyruvate (GIBCO-BRL), 20 UI/L human recombinant insulin (LILLY), 33 mM sodium bicarbonate and 20 mM HEPES All the other cell lines were grown in RPMI 1640 medium (GIBCO-BRL) supplemented with 10% foetal calf serum (GIBCO-BRL), 2 mM Glutamax™ (GIBCO-BRL), 33 mM sodium bicarbonate and 20 mM HEPES. Cells were maintained at 37° C. in a 5% CO2 humidified atmosphere, and split twice a week by trypsinization.
Exponentially growing cells were exposed to CDDP for 2 hours at 37° C., in serum free medium. After exposure to the drug, the cell layers were rinsed and incubated in complete growth medium.
The siRNA duplexes were transfected according to the recommended procedure by using the Oligofectamine Reagent and Opti-MEM medium (INVITROGEN LIFE TECHNOLOGIES). 30-40% confluent cells were transfected in 25 cm^2 flasks with different concentrations of siXL1, siRNA Mcl-1 or siRNA control and incubated at 37° C., 5% CO2 for 4 hours. Next, 20% fetal bovin serum was added to reach a final concentration of 10% foetal bovin serum in the 25 cm^2 flask.
Cells were rinsed with ice cold PBS and lysed in 150 mM NaCl, 50 mM Tris-HCl pH 8, 1% Triton X100, 4 mM PMSF, 2 mM Aprotinin, 5 mM EDTA, 10 mM NaF, 10 mM NaPPi, 1 mM Na3VO4 for 30 min on ice. Lysates were clarified by centrifugation at 10000 g for 10 min at 4° C. and protein concentrations were determined using the Bradford assay (BIO-RAD). Equal amounts of total cellular protein (20 μg) were resolved in a Bis-tris-HCL buffered (pH 6.4) 4-12% polyacrylamide gel (NuPAGE® Novex® 4-12% Bis-tris gel, INVITROGEN) for 35 min at 200V and electrophoretically transferred on a PVDF membrane (MILLIPORE) for 75 min at 30V. The membrane was blocked for 1 hour at room temperature in T-TBS (132 mM NaCl, 20 mM Tris-HCl pH 7.6, 0.05% Tween 20) supplemented with 5% non-fat dry milk. The membrane was incubated for 1 hour at room temperature in T-TBS-milk with the following primary antibodies: anti-Bcl-XL/S (1:500, S18 SANTA-CRUZ BIOTECHNOLOGY), anti-PARP (1:1000, CELL-SIGNALING TECHNOLOGY), anti-caspase-3 (1:1000, BD BIOSCIENCES PHARMINGEN) anti-cleaved caspase-3 (1:1000, CELL-SIGNALING TECHNOLOGY), anti-alpha-tubulin (1:3000, SIGMA) and anti-Mcl-1 (1:750, S19 SANTA-CRUZ BIOTECHNOLOGY). After three washes with T-TBS, the membrane was incubated for 1 h at room temperature in T-TBS-milk with the adequate peroxidase conjugated secondary antibody (Anti-rabbit IgG, CELL-SIGNALING TECHNOLOGY, and anti-mouse IgG, AMERSHAM). After 3 washes with T-TBS and one with TBS, the immunoreactivity was detected by enhanced chemiluminescence (ECL kit, AMERSHAM).

[1] = SKOV3 cells, 100 nM siXL1, FIG. 4

Substance: siXL1: double-stranded siRNA blocking Bcl-XL expression; sense 5′-auuggugagucggaucgcatt-3′ (SEQ ID NO: 5), anti-sense 5′-ugcgauccgacucaccaautt-3′ (SEQ ID NO: 6) (sense AUUGGUGAGUCGGAUCGCATT; antisense UGCGAUCCGACUCACCAAUTT; chemistry not given here)
- optimal concentration (SKOV3 cells): 150 nM
- persistence of the siXL1 effect (SKOV3 cells): 96 h
- effect on Bcl-XL protein expression at lower dose (SKOV3 cells, 25 nM, FIG. 4): greatly reduced and delayed
- time of maximum decrease of Bcl-XL protein expression [1]: 72 h
- time of reappearance of Bcl-XL protein expression [1]: ≥ 144 h
- Bcl-XL protein expression 24 hours after transfection (SKOV3 cells, 24 hours after siXL1 transfection): reduced
- effect of various concentrations on Bcl-XL protein expression (SKOV3 cells, 72 h after transfection, FIG. 3): dose-dependent
- Bcl-XL protein expression 24 hours after exposure to cisplatin (SKOV3 cells, 72 hours after siRNA transfection, cisplatin 5 and 20 μg/ml, FIG. 9): disappears almost completely
- Bcl-XL protein expression after 72 hours (SKOV3 cells, 72 hours after transfection, FIG. 1C): disappeared totally
- Bcl-XL protein expression 96 hours after cisplatin exposure (SKOV3 cells, 144 hours after transfection, combination with 20 μg/ml cisplatin, FIG. 9): reappears
- Bcl-XL protein expression in various tumor cell lines (ovarian carcinoma, glioblastoma or mesothelioma cells, 72 h after transfection, FIGS. 2A&B): extinction
